# Data reported in DBAASP.
# Columns and labels:
# Assay in all cases: ≥ marks a high value that may be exact or a test limit, other limits are often not marked, values filed in µg/mL are converted to µM
# [1] = test system: Escherichia coli ATCC 25922
# [2] = test system: Pseudomonas aeruginosa ATCC 27853
# Staphylococcus aureus = test system: Staphylococcus aureus
# Escherichia coli = test system: Escherichia coli
# [3] = test system: Staphylococcus aureus ATCC 25923
Compound,MIC [1] [µM],MIC [2] [µM],MIC (Staphylococcus aureus) [µM],MIC (Escherichia coli) [µM],MIC [3] [µM]
CC(C)C[C@H](NC(=O)[C@H](CCC(N)=O)NC(=O)[C@H](CCCCN)NC(=O)[C@H](CCCN=C(N)N)NC(=O)[C@H](Cc1ccccc1)NC(=O)[C@H](C)N)C(=O)N[C@@H](CCCCN)C(=O)N[C@@H](Cc1c[nH]c2ccccc12)C(=O)O [AFRKQLKW],3.72,,,,
CC(C)C[C@H](NC(=O)CN)C(=O)N[C@@H](CC(C)C)C(=O)N[C@@H](CCCCN)C(=O)N[C@@H](CCCN=C(N)N)C(N)=O [GLLKR],> 52.9,,,,> 52.9
CC[C@H](C)[C@H](NC(=O)[C@H](CCCN=C(N)N)NC(=O)[C@@H](NC(=O)[C@H](CC(C)C)NC(=O)[C@H](CC(C)C)NC(=O)CN)[C@@H](C)O)C(=O)N[C@@H](CCCCN)C(=O)N[C@H](C(=O)N[C@@H](CC(C)C)C(=O)N[C@@H](CC(C)C)C(N)=O)[C@@H](C)O [GLLTRIKTLL],200,,,,
CC(C)C[C@H](NC(=O)[C@H](CCCCN)NC(=O)[C@H](CCCCN)NC(=O)[C@H](C)NC(=O)[C@H](CC(C)C)NC(=O)[C@@H](N)CCCCN)C(=O)N[C@@H](C)C(N)=O [KLAKKLA],> 100,> 100,,,> 100
NC(=O)[C@H](CCCN=C(N)N)NC(=O)[C@H](Cc1c[nH]c2ccccc12)NC(=O)[C@H](Cc1ccc(O)cc1)NC(=O)[C@H](CCCN=C(N)N)NC(=O)[C@H](Cc1c[nH]c2ccccc12)NC(=O)[C@H](Cc1c[nH]c2ccccc12)NC(=O)[C@@H](N)CCCN=C(N)N [RWWRYWR],8.28,16.6,,,2.07
CC(C)C[C@H](NC(=O)[C@H](Cc1ccccc1)NC(=O)[C@@H]1CCCN1C(=O)[C@H](Cc1c[nH]c2ccccc12)NC(=O)[C@H](C)NC(=O)[C@H](C)NC(=O)[C@@H]1CCCN1C(=O)[C@H](Cc1ccccc1)NC(=O)[C@H](CCCN=C(N)N)NC(=O)[C@H](CCCN=C(N)N)NC(=O)[C@@H](N)C(C)C)C(=O)N[C@@H](CCCN=C(N)N)C(=O)N[C@@H](CCCN=C(N)N)C(N)=O [VRRFPAAWPFLRR],90.5,,,,
CSCC[C@H](NC(=O)[C@H](CCCN=C(N)N)NC(=O)[C@H](Cc1c[nH]c2ccccc12)NC(=O)[C@H](C)NC(=O)[C@H](Cc1c[nH]c2ccccc12)NC(=O)[C@H](CCCN=C(N)N)NC(=O)[C@H](CCCN=C(N)N)NC(=O)[C@H](C)NC(=O)[C@H](CCCCN)NC(=O)[C@@H](N)Cc1ccc(O)cc1)C(=O)N[C@@H](CCCCN)C(=O)O [YKARRWAWRMK],32.2,129,,,32.2

# Further lines, results first:
MIC [1] [µM],MIC [2] [µM],MIC (Staphylococcus aureus) [µM],MIC (Escherichia coli) [µM],MIC [3] [µM],Compound
8,,,,,CC[C@H](C)[C@H](NC(=O)[C@H](CO)NC(=O)[C@H](Cc1ccccc1)NC(=O)[C@H](CC(C)C)NC(=O)[C@H](C)N)C(=O)N[C@@H](CC(C)C)C(=O)N[C@@H](CCCN=C(N)N)C(=O)NCC(=O)N[C@@H](CC(C)C)C(=O)N[C@@H](CCCCN)C(=O)N[C@@H](CCCCN)C(=O)N[C@@H](CC(C)C)C(=O)NCC(=O)N[C@@H](CC(N)=O)C(=O)N[C@@H](CCSC)C(=O)NCC(=O)N[C@@H](CCC(N)=O)C(=O)N[C@@H](C)C(=O)N[C@@H](Cc1ccccc1)C(=O)N[C@H](C(=O)N[C@@H](CC(N)=O)C(=O)N[C@H]1CSSC[C@@H](C(=O)O)NC(=O)[C@H](CCCCN)NC(=O)[C@H](CCCCN)NC(=O)[C@H](Cc2ccc(O)cc2)NC(=O)[C@H]([C@@H](C)CC)NC(=O)[C@H](CCCCN)NC1=O)C(C)C [ALFSILRGLKKLGNMGQAFVNCKIYKKC]
,0.5,,,,CC[C@H](C)[C@H](NC(=O)[C@H](CCCCN)NC(=O)[C@@H](N)Cc1ccccc1)C(=O)N[C@@H](CCCCN)C(=O)N[C@@H](C)C(=O)N[C@@H](CO)C(=O)N[C@@H](CCCCN)C(=O)N[C@@H](CCCCN)C(=O)N[C@@H](CC(C)C)C(=O)N[C@@H](CC(C)C)C(=O)N[C@@H](CCCCN)C(=O)N[C@@H](CCCCN)C(=O)N[C@H](C(=O)NCC(=O)N[C@@H](CCCCN)C(=O)NCC(=O)N[C@@H](C)C(=O)N[C@@H](CC(C)C)C(=O)NCC(=O)N[C@@H](C)C(=O)N[C@H](C(=O)N[C@@H](C)C(=O)N[C@@H](CCCCN)C(=O)N[C@@H](C)C(=O)N[C@@H](CC(C)C)C(=O)N[C@@H](C)C(=O)N[C@@H](CCC(N)=O)C(=O)N[C@@H](CCC(N)=O)C(=O)N[C@@H](C)C(=O)O)C(C)C)C(C)C [FKIKASKKLLKKVGKGALGAVAKALAQQA]
3.1,,,,,CC[C@H](C)[C@H](NC(=O)CN)C(=O)NCC(=O)N[C@@H](CCCCN)C(=O)N[C@@H](Cc1ccccc1)C(=O)N[C@@H](CC(C)C)C(=O)N[C@@H](Cc1cnc[nH]1)C(=O)N[C@@H](CO)C(=O)N[C@@H](C)C(=O)N[C@@H](CCCCN)C(=O)N[C@@H](CCCCN)C(=O)N[C@@H](Cc1ccccc1)C(=O)NCC(=O)N[C@@H](CCCCN)C(=O)N[C@@H](C)C(=O)N[C@@H](Cc1ccccc1)C(=O)N[C@H](C(=O)NCC(=O)N[C@@H](CCC(=O)O)C(=O)N[C@H](C(=O)N[C@@H](CCSC)C(=O)N[C@@H](CC(N)=O)C(=O)N[C@@H](CO)C(=O)NCC(=O)NCC(=O)N[C@@H](CS)C(N)=O)[C@@H](C)CC)C(C)C [GIGKFLHSAKKFGKAFVGEIMNSGGC]
16,,,,,CC[C@H](C)[C@H](NC(=O)CN)C(=O)N[C@@H](CCSC)C(=O)N[C@@H](CC(=O)O)C(=O)N[C@@H](CO)C(=O)N[C@H](C(=O)N[C@@H](CCCCN)C(=O)N[C@@H](CC(N)=O)C(=O)N[C@H](C(=O)N[C@@H](C)C(=O)N[C@@H](CCCCN)C(=O)N[C@@H](CC(N)=O)C(=O)N[C@H](C(=O)N[C@@H](C)C(=O)NCC(=O)N[C@@H](CCC(N)=O)C(=O)N[C@@H](CC(C)C)C(=O)N[C@@H](CC(C)C)C(=O)N[C@@H](CC(=O)O)C(=O)N[C@@H](CCCCN)C(=O)N[C@@H](CC(C)C)C(=O)N[C@@H](CCCCN)C(=O)N[C@H]1CSSC[C@@H](C(=O)O)NC(=O)CNC(=O)[C@H]([C@@H](C)O)NC(=O)[C@H]([C@@H](C)CC)NC(=O)[C@H](CCCCN)NC1=O)[C@@H](C)CC)C(C)C)C(C)C [GIMDSVKNVAKNIAGQLLDKLKCKITGC]
,,80,80,,CSCC[C@H](NC(=O)CNC(=O)[C@H](C)NC(=O)[C@H](CCCCN)NC(=O)[C@H](C)NC(=O)[C@H](Cc1ccccc1)NC(=O)[C@H](CCCCN)NC(=O)[C@H](CCCCN)NC(=O)[C@H](CC(C)C)NC(=O)[C@@H](NC(=O)[C@H](CC(=O)O)NC(=O)[C@H](CC(C)C)NC(=O)[C@H](Cc1ccccc1)NC(=O)[C@H](CC(C)C)NC(=O)CN)[C@@H](C)O)C(=O)N[C@@H](CCC(=O)O)C(=O)N[C@@H](C)C(=O)N[C@H](C(=O)N[C@H](C(=O)N[C@@H](CC(N)=O)C(=O)N1CCC[C@H]1C(=O)N[C@@H](CCCCN)C(=O)O)[C@@H](C)O)C(C)C [GLFLDTLKKFAKAGMEAVTNPK]
79.9,,,,20,CC[C@H](C)[C@H](NC(=O)[C@H](CC(=O)O)NC(=O)[C@@H](NC(=O)[C@@H](NC(=O)CN)C(C)C)C(C)C)C(=O)N[C@@H](CC(C)C)C(=O)N[C@@H](CCCCN)C(=O)NCC(=O)N[C@@H](C)C(=O)N[C@@H](C)C(=O)N[C@@H](CCCCN)C(=O)N[C@@H](CC(=O)O)C(=O)N[C@@H](CC(C)C)C(=O)N[C@@H](C)C(=O)NCC(=O)N[C@@H](Cc1cnc[nH]1)C(=O)O [GVVDILKGAAKDLAGH]
47,,,,> 256,C[C@H](NC(=O)[C@H](C)NC(=O)[C@H](CCCCN)NC(=O)[C@H](CCCCN)NC(=O)[C@H](C)NC(=O)[C@H](C)NC(=O)[C@H](CCCCN)NC(=O)[C@H](C)NC(=O)[C@H](C)NC(=O)[C@H](CCCCN)NC(=O)[C@H](CCCCN)NC(=O)[C@H](C)NC(=O)[C@H](C)NC(=O)[C@@H](N)CCCCN)C(N)=O [KAAKKAAKAAKKAA]
4,4,,,4,CC(C)C[C@H](NC(=O)[C@H](CCCCN)NC(=O)CNC(=O)[C@H](CC(C)C)NC(=O)[C@H](CCCCN)NC(=O)[C@H](CCCCN)NC(=O)CNC(=O)[C@H](CC(C)C)NC(=O)[C@H](CCCCN)NC(=O)CNC(=O)[C@H](CC(C)C)NC(=O)[C@H](CCCCN)NC(=O)[C@H](CCCCN)NC(=O)CNC(=O)[C@H](CC(C)C)NC(=O)[C@@H](N)CCCCN)C(=O)NCC(=O)N[C@@H](CCCCN)C(=O)N[C@@H](CCCCN)C(=O)N[C@@H](CC(C)C)C(=O)NCC(N)=O [KLGKKLGKLGKKLGKLGKKLG]
,,,3.3,,CC[C@H](C)[C@H](NC(=O)[C@H](Cc1c[nH]c2ccccc12)NC(=O)[C@H](CCCCN)NC(=O)[C@@H]1CCCN1C(=O)[C@H](CC(C)C)NC(=O)[C@@H](N)CCCCN)C(=O)N[C@H](C(=O)N[C@@H](CCCCN)C(=O)N[C@H](C(=O)N[C@H](C(=O)N[C@@H](CC(N)=O)C(=O)N[C@@H](CCCCN)C(=O)N[C@@H](Cc1ccccc1)C(=O)N[C@H](C(=O)N[C@@H](CCCCN)C(=O)N[C@@H](CCCCN)C(=O)O)[C@@H](C)O)C(C)C)[C@@H](C)O)[C@@H](C)CC [KLPKWIIKTVNKFTKK]
4.4,,,,2.2,CSCC[C@H](NC(=O)[C@H](CCCN=C(N)N)NC(=O)[C@H](Cc1c[nH]c2ccccc12)NC(=O)[C@H](C)NC(=O)[C@H](Cc1c[nH]c2ccccc12)NC(=O)[C@H](CCCN=C(N)N)NC(=O)[C@H](CCCN=C(N)N)NC(=O)[C@H](C)NC(=O)[C@H](CCCCN)NC(=O)[C@H](Cc1ccccc1)NC(=O)[C@H](Cc1c[nH]c2ccccc12)NC(=O)[C@H](C)NC(=O)[C@@H]1CCCN1)C(=O)N[C@@H](CC(C)C)C(=O)N[C@@H](CCCCN)C(=O)N[C@@H](CCCCN)C(=O)N[C@@H](C)C(=O)N[C@@H](C)C(=O)O [PAWFKARRWAWRMLKKAA]
> 100,> 100,,,,CSCC[C@H](NC(=O)[C@H](CCCCN)NC(=O)[C@H](CCCCN)NC(=O)[C@H](CCCCN)NC(=O)[C@H](CCCN=C(N)N)NC(=O)[C@H](CCCN=C(N)N)NC(=O)[C@H](Cc1ccc(O)cc1)NC(=O)[C@@H](N)CCCN=C(N)N)C(=O)N[C@@H](CCCCN)C(=O)N[C@@H](CCCCN)C(=O)N[C@@H](C)C(=O)N[C@@H](CC(C)C)C(=O)N[C@@H](CCC(N)=O)C(=O)N[C@@H](Cc1ccc(O)cc1)C(N)=O [RYRRKKKMKKALQY]
